In US11028061B2, “Modulators of myocyte lipid accumulation and insulin resistance and methods of use thereof” (Sanford Burnham Prebys Medical Discovery Institute, priority 2015, dated 2021):

What was measured:
DGAT1/2 = assay: Direct inhibition of DGAT1/2 activity; type: biochemical; details: data not shown
ARRDC4 = ARRDC4 expression by quantitative RT-PCR in human myotubes; type: cell-based; details: 24 hours
Protocol: (§1) FIGS. 4A-C show downregulation of TXNIP and ARRDC4 expression by SBI-477. (FIG. 4A) TXNIP and ARRDC4 mRNA levels as determined by quantitative RT-PCR in human myotubes treated with SBI-477 (10 μM) or DGAT1 inhibitor (DGATi, […]) for 24 hours in the absence or presence of 100 μM oleate (n=4). Expression is shown relative to vehicle/BSA treatment. (FIG. 4B) TXNIP gene expression following exposure to a dose range of SBI-477 for 24 hours (n=4). (FIG. 4C) Left, Effect of SBI-477 on TXNIP protein levels as determined by western blot analysis by SBI-477. Right, Quantitation of the TXNIP western blot data is shown (n=5). *p<0.05 vs. Vehicle/BSA control, †p<0.05 vs. Vehicle/oleate by one-way ANOVA with Bonferroni post hoc test. The data are shown as mean±SD.
(§2) Total RNA was isolated using RNeasy Mini Kit (Qiagen) according to the manufacturer's instructions. cDNA was synthesized using the Affinity Script cDNA Synthesis Kit (Stratagene) with 0.5 μg of total RNA. PCR reactions were performed in triplicate […] Roche LightCycler® 480 Instrument II) with specific primers for each gene.

MondoA [1] = target: T1, MondoA (Homo sapiens, UniProt Q9HAP2); assay: ChIP of MondoA occupation on TXNIP and ARRDC4 promoter ChoREs; type: cell-based; details: human skeletal myotubes
T1 construct: Proteins were immunoprecipitated by using anti-MondoA (Bethyl Laboratories; catalog number A303-195A); endogenous in cells; host or cells: differentiated primary human skeletal myotubes
Protocol: ChIP assays were performed as previously described (Gan, et al., Genes Dev., 2011, 25(24):2619-2630). Briefly, differentiated human skeletal myotubes were cross-linked with 1% formaldehyde for 10 minutes at room temperature, and glycine was added to stop the cross-linking reaction. Cells were harvested and lysed. For chromatin fragmentation, sonication was performed using a Bioruptor (Diagenode). Proteins were immunoprecipitated by using anti-MondoA (Bethyl Laboratories; catalog number A303-195A) or IgG control (Sigma; catalog number 15006) overnight at 4° C. DNA fragments were purified using a QIAquick PCR purification kit (Qiagen) and quantified by a LightCycler® 480 Instrument II (Roche) with the specific primers listed in Table 1.
T1 sequence (Q9HAP2 2-919 limits assumed): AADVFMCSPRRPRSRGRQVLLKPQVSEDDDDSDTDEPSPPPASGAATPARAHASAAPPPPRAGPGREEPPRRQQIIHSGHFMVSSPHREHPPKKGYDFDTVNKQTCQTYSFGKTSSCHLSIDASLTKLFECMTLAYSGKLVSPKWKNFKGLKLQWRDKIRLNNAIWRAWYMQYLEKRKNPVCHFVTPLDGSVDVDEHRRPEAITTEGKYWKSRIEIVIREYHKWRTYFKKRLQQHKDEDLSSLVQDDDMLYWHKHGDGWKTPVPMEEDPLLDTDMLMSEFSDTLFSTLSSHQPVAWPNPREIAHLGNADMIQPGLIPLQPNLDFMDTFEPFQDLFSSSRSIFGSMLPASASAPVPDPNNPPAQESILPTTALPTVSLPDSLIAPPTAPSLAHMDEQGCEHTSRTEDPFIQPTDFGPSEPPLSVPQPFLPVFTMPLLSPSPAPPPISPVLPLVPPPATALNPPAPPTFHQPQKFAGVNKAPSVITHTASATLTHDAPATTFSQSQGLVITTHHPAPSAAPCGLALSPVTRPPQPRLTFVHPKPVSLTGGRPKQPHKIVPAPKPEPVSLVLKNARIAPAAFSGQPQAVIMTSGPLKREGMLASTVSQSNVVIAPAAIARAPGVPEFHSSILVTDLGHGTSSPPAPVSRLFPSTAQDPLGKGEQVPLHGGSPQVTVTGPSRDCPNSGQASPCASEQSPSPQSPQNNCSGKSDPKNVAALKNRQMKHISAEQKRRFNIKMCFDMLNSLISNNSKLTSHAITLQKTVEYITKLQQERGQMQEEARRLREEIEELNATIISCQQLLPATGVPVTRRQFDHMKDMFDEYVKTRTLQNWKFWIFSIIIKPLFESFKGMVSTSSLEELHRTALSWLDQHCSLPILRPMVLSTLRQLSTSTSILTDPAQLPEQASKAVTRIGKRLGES

primary human myotubes = assay: Fatty acid uptake (3H-oleate); type: cell-based; details: 10 μM, 24 hours
Protocol: FIGS. 1A-1C show SBI-477 as a small molecule inhibitor of neutral lipid accumulation in human skeletal myotubes. […] Data is shown as percent of DMSO vehicle control. Representative of >5 experiments. FIGS. 1B and 1C show dose-dependent inhibition of myocyte TAG accumulation by SBI-477. FIG. 1B—primary human myotubes were incubated with the indicated concentrations of SBI-477, 1 μM triascin C, 1 μM A922500 (DGAT inhibitor) or vehicle control with 100 μM oleate for 24 hours. Fatty acid free bovine serum albumin (BSA) was included as non-lipid loading control. Bars represent mean triglyceride level normalized to total protein±SD. *p<0.001 vs. oleate/vehicle control by one-way ANOVA with Bonferroni post hoc test. FIG. 1C—primary human myotubes were incubated with 10 μM SBI-477 or vehicle control for 24 hours. Fatty acid (FA) uptake was measured as cellular uptake of 3H-oleate. Bars represent fatty acid uptake normalized to the vehicle control. FIGS. 1D-1F show the effect of SBI-477 on FAO rates in human skeletal myotubes. […] FAO rates were determined by 3H-palmitate oxidation (n=5). […] Total cellular triglyceride levels were determined following incubation with SBI-477 (10 μM) for 24 hours with etomoxir (50 μM) in the absence (FIG. 1E) or presence of 1 mM carnitine (FIG. 1F) (n=4). *p<0.05 vs. vehicle control.

TXNIP = TXNIP expression by quantitative RT-PCR in human myotubes; type: cell-based; details: 24 hours
Protocol: as §1, §2

MondoA [2] = target: T2, MondoA (Homo sapiens, UniProt Q9HAP2); assay: Intracellular localization of MondoA (immunolocalization); type: cell-based; details: human skeletal myoblasts; data not shown
T2 construct: endogenous in cells; host or cells: human skeletal myoblasts
Protocol: The activity of ChREBP and MondoA is governed, in part, by nuclear-cytoplasmic shuttling mechanisms that are incompletely understood but likely involve glucose metabolites and phosphorylation (Stoltzman, et al., Proc Natl Acad Sci USA. 2008; 105(19):6912-6917; Filhoulaud, et al., Trends Endocrinol Metab. 2013; 24(5):257-268). Accordingly, the effect of SBI-477 on intracellular localization of MondoA was assessed. […] The results of immunoblotting studies conducted with fractionated cellular extracts further supported this conclusion (FIG. 5D).
T2 sequence (Q9HAP2 whole entry): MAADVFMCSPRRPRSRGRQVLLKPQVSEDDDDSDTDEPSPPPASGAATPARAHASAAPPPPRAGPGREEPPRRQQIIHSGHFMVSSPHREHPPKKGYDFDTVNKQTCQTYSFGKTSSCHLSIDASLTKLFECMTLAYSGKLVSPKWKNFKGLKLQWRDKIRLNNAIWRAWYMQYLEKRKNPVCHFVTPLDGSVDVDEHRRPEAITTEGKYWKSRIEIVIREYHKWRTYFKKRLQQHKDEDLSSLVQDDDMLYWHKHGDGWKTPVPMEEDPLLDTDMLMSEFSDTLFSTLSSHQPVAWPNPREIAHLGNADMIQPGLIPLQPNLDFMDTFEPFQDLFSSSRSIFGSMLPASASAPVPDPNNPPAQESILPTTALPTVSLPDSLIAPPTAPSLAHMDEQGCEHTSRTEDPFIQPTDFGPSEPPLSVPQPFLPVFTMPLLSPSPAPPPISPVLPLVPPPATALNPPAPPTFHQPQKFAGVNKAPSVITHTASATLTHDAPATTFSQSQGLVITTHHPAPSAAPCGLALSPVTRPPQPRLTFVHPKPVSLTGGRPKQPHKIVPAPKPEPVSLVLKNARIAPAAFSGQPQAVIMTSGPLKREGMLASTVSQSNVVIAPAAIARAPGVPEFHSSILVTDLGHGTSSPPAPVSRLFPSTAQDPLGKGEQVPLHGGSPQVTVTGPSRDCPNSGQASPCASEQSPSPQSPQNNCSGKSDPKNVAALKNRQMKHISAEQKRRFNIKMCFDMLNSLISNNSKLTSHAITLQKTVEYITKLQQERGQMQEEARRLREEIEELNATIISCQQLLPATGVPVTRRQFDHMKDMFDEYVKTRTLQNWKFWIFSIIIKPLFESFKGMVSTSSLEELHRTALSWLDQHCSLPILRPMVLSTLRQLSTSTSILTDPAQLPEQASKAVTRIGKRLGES

[3] = Intracellular lipolysis rates; type: cell-based; details: data not shown

COc1ccc(-c2csc(NC(=O)c3ccc(OCC(=O)N4CCOCC4)c(OC)c3)n2)cc1 [Cpd. 7, 3-methoxy-N-(4-(4-methoxyphenyl)thiazol-2-yl)-4-(2-morpholino-2-oxoethoxy)benzamide]
Direct inhibition of DGAT1/2 activity (DGAT1/2): not found that SBI-477 directly inhibits
ARRDC4 expression (ARRDC4): robust, dose-dependent downregulation
Occupation by MondoA of ChoREs in TXNIP and ARRDC4 promoter regions (MondoA [1]): inhibited
Cellular fatty acid uptake (primary human myotubes): not due to blocking cellular fatty acid uptake
TXNIP expression (TXNIP): robust, dose-dependent downregulation
Nuclear localization of MondoA (MondoA [2]): near complete nuclear exclusion of MondoA
Intracellular lipolysis rates [3]: not due to blocking cellular fatty acid uptake or increasing intracellular lipolysis rates
